From patent US8071586B2, “Heterocyclyl compounds” (Hoffmann-La Roche Inc., priority 2008, dated 2011)

target: T1, human chemokine receptor 2 isoform B (CCR2) (Homo sapiens, UniProt P41597); experiment: Calcium mobilization assay (FLIPR, MCP-1 stimulated CHOK1-CCR2B-A5 cells); assay type: cell-based; details: Ca mobilisation assay, CCR2 antagonist activity, inhibition of MCP-1 induced calcium increase
T1 sequence (P41597 1-360 isoform P41597-2): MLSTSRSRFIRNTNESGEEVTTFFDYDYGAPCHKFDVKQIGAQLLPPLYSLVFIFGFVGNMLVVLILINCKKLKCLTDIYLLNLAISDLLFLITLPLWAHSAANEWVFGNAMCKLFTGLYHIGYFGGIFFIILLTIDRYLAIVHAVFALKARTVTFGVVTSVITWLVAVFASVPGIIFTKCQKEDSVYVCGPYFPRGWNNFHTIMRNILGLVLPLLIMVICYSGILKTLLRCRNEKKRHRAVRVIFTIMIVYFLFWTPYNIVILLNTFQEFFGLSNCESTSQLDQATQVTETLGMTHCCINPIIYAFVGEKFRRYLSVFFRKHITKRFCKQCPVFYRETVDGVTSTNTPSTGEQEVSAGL
How it was run: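 Fluo-4-loaded CHOK1 cells stably expressing human CCR2B were preincubated with compound 20-30 min at 30 °C in DMEM/Hepes/probenecid/0.1% BSA buffer with 0.5% DMSO, then challenged with […] MCP-1. FLIPR calcium signal (max minus basal) gave IC50; agonism also monitored.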

| SMILES | IC50 [nM] |
| --- | --- |
| COC[C@H](CCN1CCC2(CC2)[C@H](O)C1)N1CCN(C(=O)Nc2cccc(Cl)c2)[C@H](C)C1=O [Example 85, (R)-4-[(S)-3-((S)-4-Hydroxy-6-aza-spiro[2.5]oct-6-yl)-1-methoxymethyl-propyl]-2-methyl-3-oxo-piperazine-1-carboxylic acid (3-chloro-phenyl)-amide] | 180 |
| C[C@H]1C(=O)N([C@@H](CCN2CCCCC2)COC(=O)Nc2ccc(Cl)c(Cl)c2)CCN1C(=O)Nc1ccc(Cl)c(Cl)c1 [Example 86, (3,4-Dichloro-phenyl)-carbamic acid (S)-2-[(S)-4-(3,4-dichloro-phenylcarbamoyl)-3-methyl-2-oxo-piperazin-1-yl]-4-piperidin-1-yl-butyl ester] | 192 |
| C[C@H]1C(=O)N(CCCCN2CCC3(CC3)[C@H](O)C2)CCN1C(=O)Nc1ccc(C(F)(F)F)cc1 [Example 88, (S)-4-[4-((S)-4-Hydroxy-6-aza-spiro[2.5]oct-6-yl)-butyl]-2-methyl-3-oxo-piperazine-1-carboxylic acid (4-trifluoromethyl-phenyl)-amide] | 97 |
| C[C@H]1C(=O)N(CCCCN2CCC3(CC3)[C@H](O)C2)CCN1C(=O)Nc1cccc(C(F)(F)F)c1 [Example 89, (S)-4-[4-((S)-4-Hydroxy-6-aza-spiro[2.5]oct-6-yl)-butyl]-2-methyl-3-oxo-piperazine-1-carboxylic acid (3-trifluoromethyl-phenyl)-amide] | 25 |
| C[C@H]1C(=O)N(CCCCN2CCC3(CC3)[C@H](O)C2)CCN1C(=S)Oc1ccc2ccccc2c1 [Example 92, (S)-4-[4-((S)-4-Hydroxy-6-aza-spiro[2.5]oct-6-yl)-butyl]-2-methyl-3-oxo-piperazine-1-carbothioic acid O-naphthalen-2-yl ester] | 624 |
| C[C@H]1C(=O)N(CCCCN2CCC3(CC3)[C@H](O)C2)CCN1C(=O)Nc1cccc(-c2cccnc2)c1 [Example 94, (S)-4-[4-((S)-4-Hydroxy-6-aza-spiro[2.5]oct-6-yl)-butyl]-2-methyl-3-oxo-piperazine-1-carboxylic acid (3-pyridin-3-yl-phenyl)-amide] | 293 |
| C[C@H]1C(=O)N(CCCCN2CCC3(CC3)[C@H](O)C2)CCN1C(=O)Nc1cccc(-c2ccncc2)c1 [Example 95, (S)-4-[4-((S)-4-Hydroxy-6-aza-spiro[2.5]oct-6-yl)-butyl]-2-methyl-3-oxo-piperazine-1-carboxylic acid (3-pyridin-4-yl-phenyl)-amide] | 565 |
| C[C@H]1C(=O)N(CCCCN2CCC3(CC3)[C@H](O)C2)CCN1C(=O)Nc1ccc(C(F)(F)F)cn1 [Example 99, (S)-4-[4-((S)-4-Hydroxy-6-aza-spiro[2.5]oct-6-yl)-butyl]-2-methyl-3-oxo-piperazine-1-carboxylic acid (5-trifluoromethyl-pyridin-2-yl)-amide] | 24 |
| C[C@H]1C(=O)N(CCCCN2CCC3(CC3)[C@H](O)C2)CCN1C(=O)Nc1cccc(C(F)(F)F)n1 [Example 101, (S)-4-[4-((S)-4-Hydroxy-6-aza-spiro[2.5]oct-6-yl)-butyl]-2-methyl-3-oxo-piperazine-1-carboxylic acid (6-trifluoromethyl-pyridin-2-yl)-amide] | 316 |
| C[C@H]1C(=O)N(CCN2CCC3(CC3)[C@H](O)C2)CCN1C(=O)Nc1ccc(Cl)c(Cl)c1 [Example 104, (S)-4-[2-((S)-4-Hydroxy-6-aza-spiro[2.5]oct-6-yl)-ethyl]-2-methyl-3-oxo-piperazine-1-carboxylic acid (3,4-dichloro-phenyl)-amide] | 382 |
| CC(=O)OC[C@H](CCN1CCC2(CC2)[C@H](O)C1)N1CCN(C(=O)Nc2cccc(Cl)c2)[C@@H](C)C1=O [Example 109, Acetic acid (S)-2-[(S)-4-(3-chloro-phenylcarbamoyl)-3-methyl-2-oxo-piperazin-1-yl]-4-((S)-4-hydroxy-6-aza-spiro[2.5]oct-6-yl)-butyl ester] | 10 |
| CCNC(=O)OC[C@H](CCN1CCC2(CC2)[C@H](O)C1)N1CCN(C(=O)Nc2cccc(Cl)c2)[C@@H](C)C1=O [Example 111, Ethyl-carbamic acid (S)-2-[(S)-4-(3-chloro-phenylcarbamoyl)-3-methyl-2-oxo-piperazin-1-yl]-4-((S)-4-hydroxy-6-aza-spiro[2.5]oct-6-yl)-butyl ester] | 17 |
| CC(C)C(=O)OC[C@H](CCN1CCC2(CC2)[C@H](O)C1)N1CCN(C(=O)Nc2ccc(Cl)c(Cl)c2)[C@@H](C)C1=O [Example 115, Isobutyric acid (S)-2-[(S)-4-(3,4-dichloro-phenylcarbamoyl)-3-methyl-2-oxo-piperazin-1-yl]-4-((S)-4-hydroxy-6-aza-spiro[2.5]oct-6-yl)-butyl ester] | 10 |

These reach a lower IC50. Values come first.

| IC50 [nM] | SMILES |
| --- | --- |
| 5 | C[C@H]1C(=O)N(CCCCN2CCC3(CC3)[C@H](O)C2)CCN1C(=O)Nc1cccc(Cl)c1 [Example 87, (S)-4-[4-((S)-4-Hydroxy-6-aza-spiro[2.5]oct-6-yl)-butyl]-2-methyl-3-oxo-piperazine-1-carboxylic acid (3-chloro-phenyl)-amide] |
| 1 | C[C@H]1C(=O)N(CCCCN2CCC3(CC3)[C@H](O)C2)CCN1C(=O)Nc1ccc(Cl)c(Cl)c1 [Example 90, (S)-4-[4-((S)-4-Hydroxy-6-aza-spiro[2.5]oct-6-yl)-butyl]-2-methyl-3-oxo-piperazine-1-carboxylic acid (3,4-dichloro-phenyl)-amide] |
| 6 | C[C@H]1C(=O)N(CCCCN2CCC3(CC3)[C@H](O)C2)CCN1C(=O)Nc1ccc2ccccc2c1 [Example 91, (S)-4-[4-((S)-4-Hydroxy-6-aza-spiro[2.5]oct-6-yl)-butyl]-2-methyl-3-oxo-piperazine-1-carboxylic acid naphthalen-2-ylamide] |
| 2 | C[C@H]1C(=O)N(CCCCN2CCC3(CC3)[C@H](O)C2)CCN1C(=O)Nc1cccc(-c2ccccc2)c1 [Example 93, (S)-4-[4-((S)-4-Hydroxy-6-aza-spiro[2.5]oct-6-yl)-butyl]-2-methyl-3-oxo-piperazine-1-carboxylic acid biphenyl-3-ylamide] |
| 1 | C[C@H]1C(=O)N([C@H](CO)CCN2CCC3(CC3)[C@H](O)C2)CCN1C(=O)Nc1ccc(Cl)c(Cl)c1 [Example 106, (S)-4-[(S)-3-((S)-4-Hydroxy-6-aza-spiro[2.5]oct-6-yl)-1-hydroxymethyl-propyl]-2-methyl-3-oxo-piperazine-1-carboxylic acid (3,4-dichloro-phenyl)-amide] |
| 2 | C[C@H]1C(=O)N([C@H](CO)CCN2CCC3(CC3)[C@H](O)C2)CCN1C(=O)Nc1cccc(Cl)c1 [Example 107, (S)-4-[(S)-3-((S)-4-Hydroxy-6-aza-spiro[2.5]oct-6-yl)-1-hydroxymethyl-propyl]-2-methyl-3-oxo-piperazine-1-carboxylic acid (3-chloro-phenyl)-amide] |
| 2 | CC(=O)OC[C@H](CCN1CCC2(CC2)[C@H](O)C1)N1CCN(C(=O)Nc2ccc(Cl)c(Cl)c2)[C@@H](C)C1=O [Example 108, Acetic acid (S)-2-[(S)-4-(3,4-dichloro-phenylcarbamoyl)-3-methyl-2-oxo-piperazin-1-yl]-4-((S)-4-hydroxy-6-aza-spiro[2.5]oct-6-yl)-butyl ester] |
| 5 | COC(=O)OC[C@H](CCN1CCC2(CC2)[C@H](O)C1)N1CCN(C(=O)Nc2cccc(Cl)c2)[C@@H](C)C1=O [Example 110, Carbonic acid (S)-2-[(S)-4-(3-chloro-phenylcarbamoyl)-3-methyl-2-oxo-piperazin-1-yl]-4-((S)-4-hydroxy-6-aza-spiro[2.5]oct-6-yl)-butyl ester methyl ester] |
| 2 | COC(=O)OC[C@H](CCN1CCC2(CC2)[C@H](O)C1)N1CCN(C(=O)Nc2ccc(Cl)c(Cl)c2)[C@@H](C)C1=O [Example 112, Carbonic acid (S)-2-[(S)-4-(3,4-dichloro-phenylcarbamoyl)-3-methyl-2-oxo-piperazin-1-yl]-4-((S)-4-hydroxy-6-aza-spiro[2.5]oct-6-yl)-butyl ester methyl ester] |
| 1 | CC(C)OC(=O)OC[C@H](CCN1CCC2(CC2)[C@H](O)C1)N1CCN(C(=O)Nc2ccc(Cl)c(Cl)c2)[C@@H](C)C1=O [Example 113, Carbonic acid (S)-2-[(S)-4-(3,4-dichloro-phenylcarbamoyl)-3-methyl-2-oxo-piperazin-1-yl]-4-((S)-4-hydroxy-6-aza-spiro[2.5]oct-6-yl)-butyl ester isopropyl ester] |
| 6 | C[C@H]1C(=O)N([C@@H](CCN2CCC3(CC3)[C@H](O)C2)COC(=O)C(C)(C)C)CCN1C(=O)Nc1ccc(Cl)c(Cl)c1 [Example 114, 2,2-Dimethyl-propionic acid (S)-2-[(S)-4-(3,4-dichloro-phenylcarbamoyl)-3-methyl-2-oxo-piperazin-1-yl]-4-((S)-4-hydroxy-6-aza-spiro[2.5]oct-6-yl)-butyl ester] |
| 5 | CCCCCC(=O)OC[C@H](CCN1CCC2(CC2)[C@H](O)C1)N1CCN(C(=O)Nc2ccc(Cl)c(Cl)c2)[C@@H](C)C1=O [Example 116, Hexanoic acid (S)-2-[(S)-4-(3,4-dichloro-phenylcarbamoyl)-3-methyl-2-oxo-piperazin-1-yl]-4-((S)-4-hydroxy-6-aza-spiro[2.5]oct-6-yl)-butyl ester] |
